Literature values as cited in patent US6849628B2, “Optically active compounds” (The University of Strathclyde, priority 1986, dated 2005).
One block for each compound: values may come before it.

Experiments:
[1] = molecular target: T1, thymidylate synthase from L. casei (Lacticaseibacillus casei, UniProt P00469); details: Leary et al 1973
T1 sequence (P00469 1-316): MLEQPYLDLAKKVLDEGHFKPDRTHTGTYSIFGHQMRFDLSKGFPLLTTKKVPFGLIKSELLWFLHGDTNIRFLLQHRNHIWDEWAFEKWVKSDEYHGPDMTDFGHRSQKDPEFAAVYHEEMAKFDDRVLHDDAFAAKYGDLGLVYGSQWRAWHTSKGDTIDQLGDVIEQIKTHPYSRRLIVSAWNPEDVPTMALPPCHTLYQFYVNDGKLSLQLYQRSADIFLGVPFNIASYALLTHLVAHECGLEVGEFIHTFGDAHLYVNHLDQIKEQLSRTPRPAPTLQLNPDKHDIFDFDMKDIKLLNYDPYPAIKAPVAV

[2] = molecular target: 5,10-methylene tetrahydrofolate dehydrogenase from E. coli (Escherichia coli, UniProt P24186); details: Scott and Donaldson 1964
[3] = molecular target: T2, glycinamide ribonucleotide (GAR) formyl-transferase from chicken liver (Gallus gallus, UniProt P21872); details: Smith, Benkovic and Benkovic 1981
T2 construct: host or cells: chicken liver
T2 sequence (P21872 1-1003): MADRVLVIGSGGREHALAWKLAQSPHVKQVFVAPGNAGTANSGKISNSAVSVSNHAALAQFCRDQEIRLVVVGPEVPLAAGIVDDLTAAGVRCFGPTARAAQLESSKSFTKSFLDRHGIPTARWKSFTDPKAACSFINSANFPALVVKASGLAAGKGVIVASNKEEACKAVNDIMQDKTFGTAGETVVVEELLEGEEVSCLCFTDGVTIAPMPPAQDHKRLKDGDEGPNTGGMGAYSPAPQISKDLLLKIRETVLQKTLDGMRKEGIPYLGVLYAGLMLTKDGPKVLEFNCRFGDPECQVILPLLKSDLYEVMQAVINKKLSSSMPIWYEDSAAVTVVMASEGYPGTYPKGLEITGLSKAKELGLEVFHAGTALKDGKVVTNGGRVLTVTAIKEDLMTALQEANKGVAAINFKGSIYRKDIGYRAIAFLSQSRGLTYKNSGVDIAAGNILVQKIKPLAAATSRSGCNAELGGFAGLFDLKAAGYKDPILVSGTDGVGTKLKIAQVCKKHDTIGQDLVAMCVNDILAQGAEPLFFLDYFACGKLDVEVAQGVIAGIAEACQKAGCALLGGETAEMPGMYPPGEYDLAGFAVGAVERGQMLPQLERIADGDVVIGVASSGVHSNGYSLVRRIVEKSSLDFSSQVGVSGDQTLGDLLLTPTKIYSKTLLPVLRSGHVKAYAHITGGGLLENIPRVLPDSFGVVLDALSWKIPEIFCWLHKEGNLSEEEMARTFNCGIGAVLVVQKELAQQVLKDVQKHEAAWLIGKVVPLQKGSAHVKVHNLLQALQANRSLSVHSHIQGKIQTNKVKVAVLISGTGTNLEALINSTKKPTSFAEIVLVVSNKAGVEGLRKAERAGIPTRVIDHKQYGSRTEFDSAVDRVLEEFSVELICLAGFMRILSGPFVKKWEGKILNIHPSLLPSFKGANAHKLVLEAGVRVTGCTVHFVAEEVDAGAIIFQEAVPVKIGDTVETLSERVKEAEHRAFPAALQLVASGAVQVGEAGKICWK

one-carbon metabolism = details: Montgomery et al 1981; only the (6S) diastereoisomer is effective

Compound: Nc1nc2c(c(=O)[nH]1)N1CN(c3ccc(C(=O)N[C@@H](CCC(=O)O)C(=O)O)cc3)CC1CN2 (single isomer, unassigned) [non-natural diastereoisomer of 5,10-methylene tetrahydrofolate, 5,10-methylene tetrahydrofolate]
- inhibition of thymidylate synthase [1]: inhibited
- inhibition of 5,10-methylene tetrahydrofolate dehydrogenase [2]: inhibited

- inhibition of GAR formyl-transferase [3]: potent competitive inhibitor
Compound: Nc1nc2c(c(=O)[nH]1)NC(CN(C=O)c1ccc(C(=O)N[C@@H](CCC(=O)O)C(=O)O)cc1)CN2 (single isomer, unassigned) [non-natural diastereoisomer of 10-formyltetrahydrofolate, 10-formyltetrahydrofolate]

Compound: calcium 5-formyl-(6S) tetrahydrofolate [Ib]
- effectiveness in restoring one-carbon metabolism (one-carbon metabolism): effective in restoring one-carbon metabolism
